Data reported in patent US10617679B2, “Deuterated compounds and medical uses thereof” (JINGLUWEIDAI INFORMATION CONSULTING SERVICE (BEIJING) CO. …, priority 2016, dated 2020).

Tests used:
[1] = test system: rat formalin model; assay: Analgesic effects of intragastric administration in a rat formalin model; assay type: in vivo, SD rats; details: mean ± SD; for Reaction time for phase I: licking time 0-5 min after formalin; for Reaction time for Phase II: licking time 15-30 min after formalin
Protocol: SD rats (male, weight 160-180 g) were randomly divided into groups with 6 rats in each group. After the rats were intragastrically administered different doses separately, they were placed in PVC observation boxes for habituation. After 30 min, the rats were injected subcutaneously with 20 μL of 2.7% formalin solution into the plantar surface of the left hind paws, and quickly put back in the PVC observation boxes for observation. The length of time the rats spent licking the injected-formalin paws at the early response (0-5 min, phase I) and the late response (15-30 min, Phase II) was recorded, and the analgesic activities of the test compounds were evaluated according to the length of time the rats spent licking during the period of observation. The experimental data were expressed as mean±standard deviation. The shorter the licking time, the better the analgesic effect of the compound.

[2] = test system: rat chronic sciatic nerve compression neuralgia model; assay: Analgesic effects of intragastric administration in a rat chronic sciatic nerve compression neuralgia model; assay type: in vivo, SD rats; details: pain threshold 1 hour after administration
Protocol: SD rats (male, weight 160-180 g) were anesthetized using sodium pentobarbital (40 mg/kg), of which the sciatic nerves were separated in the middle segment of the right hind limbs. In the anterior segment of the sciatic nerve to be bifurcated, the sciatic nerve was separated from the surrounding tissue using a sterile glass hook. Four rings were loosely ligated with sterile chrome gut (No. 4, 0.15 mm in diameter) by an interval of 1 to 2 mm. Topically sprinkled with penicillin powder. The muscle tissue and skin were sutured. The rats were placed in a cage with cork dust. In the sham surgery group, the sciatic nerve was only exposed, and the other treatments were the same as described above. The rats after surgery were placed in a metal cage. […] The weight of the filament was recorded and set to be the threshold (in g). Meanwhile, the number of foot-lifting response to the 10 stimulations of the fiber filaments of different weights was recorded, and the highest threshold was set at 26 g.
5-6 rats in each group were intragastrically administered and the pain thresholds were measured 1 hour after administration. Statistical analysis of the thresholds was performed using non-parametric Wilcoxon 2-Sample Test and Kruskal-Wallis Test, and the data was analyzed with SASS data processing software. Analgesic percent (%)=(pain threshold after drug treatment−pain threshold before drug treatment)/(maximal analgesia threshold−pain threshold before drug treatment)[…].

[3] = test system: oxycodone-induced place preference in rats; assay: Inhibition of oxycodone-induced place preference in rats; assay type: in vivo, SD rats; details: day 10, within 15 minutes
Protocol: SD rats (male, weight 160-180 g) were placed in conditioned place preference (CPP) training boxes, where the partition door between the boxes was open. Time the rats spent in each of the boxes was recorded within 15 min in order to determine the natural tendency of the rats. The rats were then randomly divided into groups with 10 rats in each group according to the amount of time spent in the white box. The white box was a drug box, and the black box was a box with the absence of the drug. After intragastric administration with a test compound for 40 minutes, the rats were injected subcutaneously with oxycodone (2.5 mg/kg, s.c.) or saline, and immediately placed in the white box or the black box to be trained for 45 minutes, once a day for 9 consecutive days. On the 10th day, the rats were placed in the training boxes with the partition door open. The time the rats spent in the white box was recorded within 15 minutes to evaluate effects on place preference in the rats.

[4] = test system: blood pressure in rats; assay: Effects on blood pressure in rats; assay type: in vivo, SD rats
Protocol: (§1) SD rats (male, weight 160-180 g) were fasted for 12 hours before administration but had free access to drinking water. The rats were randomly divided into groups. They were anesthetized with an intraperitoneal injection of 50-60 mg/kg dose of sodium pentobarbital. Each rat was fixed on the back on the surgical table. The skin was cut from the center of the neck, and an incision of about 2.5 cm was made. The subcutaneous tissue and the median muscle were separated; the trachea was fully exposed; and the endotracheal intubation was performed. The subcutaneous tissue was separated from front to back on the right side; the right common carotid artery, the vagus nerve and the sympathetic nerve were exposed; and the carotid artery cannulation was performed. Finally, the endotracheal tube and the carotid artery cannula were respectively connected to a respiration transducer and a blood pressure transducer, and then connected to a multifunctional physiological recorder. At 30 minutes after surgery, the rats were intragastrically administrated. Heart rate and blood pressure were measured at different time points after administration.

[5] = test system: heart rate in rats; assay: Effects on heart rate in rats; assay type: in vivo, SD rats
Protocol: as §1

[6] = test system: Wistar rats; assay: Evaluation of subacute toxicity (14 days, intragastric); assay type: in vivo; details: 40 mg/kg intragastric once a day for 14 days; for ALT / AST: rat; for histopathological examination of liver / plasma ALT and AST versus control group: result in words
Protocol: Male Wistar rats were randomly divided into groups with 10 rats in each group and weighed. A certain concentration of a test sample was ground and suspended in a 0.5% sodium carboxymethyl cellulose solution. The sodium carboxymethyl cellulose suspension containing 40 mg/kg of the test compound and a blank sodium carboxymethyl cellulose suspension as a control were intragastrically administered, once a day for 14 consecutive days. After the last administration, the rats were fasted but had free access to drinking water for 12 hours, and then anesthetized. Their blood samples were obtained from the abdominal aortas. According to SOPB093 “Standard Operating Procedures for Serum Preparation” in National Beijing Center for Drug Safety Evaluation and Research, serum was prepared for the determination of blood biochemical and immunological indicators; according to SOPB032 “Preparation of vacuum tubes with EDTA anticoagulation”, EDTA anticoagulation was prepared for the general blood routine tests.

[7] = test dose 10 mg/kg intragastric + oxycodone 2.5 mg/kg s.c.
[8] = test dose 20 mg/kg intragastric + oxycodone 2.5 mg/kg s.c.
[9] = 20 mg/kg intragastric, time point 0
[10] = 20 mg/kg intragastric, time point 30
[11] = 20 mg/kg intragastric, time point 60
[12] = 20 mg/kg intragastric, time point 90
[13] = 20 mg/kg intragastric, time point 120
[14] = 20 mg/kg intragastric, time point 180
[15] = 40 mg/kg intragastric, time point 0
[16] = 40 mg/kg intragastric, time point 30
[17] = 40 mg/kg intragastric, time point 60
[18] = 40 mg/kg intragastric, time point 90
[19] = 40 mg/kg intragastric, time point 120
[20] = 40 mg/kg intragastric, time point 180

| Structure (SMILES) | Reaction time for phase I ([1]; 20 mg/kg intragastric) [s] | Reaction time for Phase II ([1]; 20 mg/kg intragastric) [s] | Reaction time for phase I ([1]; 40 mg/kg intragastric) [s] | Reaction time for Phase II ([1]; 40 mg/kg intragastric) [s] | Analgesic percent ([2]; 20 mg/kg intragastric) [%] | Analgesic percent ([2]; 40 mg/kg intragastric) [%] | Time spent in the drug box (Mean ± S) [3, 7] [s] | Time spent in the drug box (Mean ± S) [3, 8] [s] | Blood pressure [4, 9] [mmHg] | Blood pressure [4, 10] [mmHg] | Blood pressure [4, 11] [mmHg] | Blood pressure [4, 12] [mmHg] | Blood pressure [4, 13] [mmHg] | Blood pressure [4, 14] [mmHg] | Blood pressure [4, 15] [mmHg] | Blood pressure [4, 16] [mmHg] | Blood pressure [4, 17] [mmHg] | Blood pressure [4, 18] [mmHg] | Blood pressure [4, 19] [mmHg] | Blood pressure [4, 20] [mmHg] | other results |
| --- | --- | --- | --- | --- | --- | --- | --- | --- | --- | --- | --- | --- | --- | --- | --- | --- | --- | --- | --- | --- | --- |
| [2H]C([2H])([2H])Oc1cc2c(cc1OC)CCN1Cc3c(ccc(OC([2H])([2H])[2H])c3OC)C[C@@H]21 [Formula I6, (13a S)-3,9-dimethoxy-2,10-di-[(trideutero)-methoxy]-6,8,13,13a-tetrahydro-5H-isoquinolino[2,1-b]isoquinoline] | 41.9 ± 9.2 | 66.7 ± 8.7 | 38.6 ± 9.4 | 40.3 ± 9.0 | 63.80 | 69.12 | 183.27 ± 33.97 | 129.35 ± 23.66 | 115.6 ± 21.9 | 108.5 ± 10.75 | 102.0 ± 11.4 | 104.7 ± 10.70 | 110.5 ± 6.8 | 106.5 ± 13.7 | 111.0 ± 21.4 | 95.4 ± 14.5 | 83.5 ± 10.30 | 85.2 ± 8.0 | 110.00 ± 11.6 | 109.5 ± 14.1 | Heart rate [5, 9]: 407.1 ± 43.4 BTM; Heart rate [5, 10]: 400.2 ± 29.4 BTM; Heart rate [5, 11]: 401.0 ± 28.47 BTM; Heart rate [5, 12]: 403.0 ± 30.2 BTM; Heart rate [5, 13]: 396.7 ± 36.3 BTM; Heart rate [5, 14]: 402.5 ± 28.8 BTM; Heart rate [5, 15]: 414.1 ± 37.6 BTM; Heart rate [5, 16]: 375.8 ± 29.3 BTM; Heart rate [5, 17]: 362.8 ± 20.7 BTM; Heart rate [5, 18]: 367.2 ± 27.0 BTM; Heart rate [5, 19]: 393.5 ± 34.6 BTM; Heart rate [5, 20]: 380.8 ± 30.5 BTM; ALT [6]: 165.3 ± 38.0 U/L; AST [6]: 251.8 ± 32.0 U/L; histopathological examination of liver [6]: vacuolar degeneration of hepatocytes; plasma ALT and AST versus control group [6]: significant increase |
| [2H]C([2H])([2H])Oc1cc2c(cc1OC)CCN1Cc3c(ccc(OC)c3OC([2H])([2H])[2H])C[C@@H]21 [Formula I5, (13a S)-3,10-dimethoxy-2,9-di-[(trideutero)-methoxy]-6,8,13,13a-tetrahydro-5H-isoquinolino[2,1-b]isoquinoline] | 85.8 ± 28.0 | 112.7 ± 29.2 | 53.4 ± 23.5 | 66.5 ± 27.6 | 39.40 | 67.56 | – | – | – | – | – | – | – | – | – | – | – | – | – | – | – |
| [2H]C([2H])([2H])Oc1ccc2c(c1OC)CN1CCc3cc(OC)c(OC)cc3[C@@H]1C2 [Formula I2, (13a S)-2,3,9-trimethoxy-10-[(trideutero)-methoxy]-6,8,13,13a-tetrahydro-5H-isoquinolino[2,1-b]isoquinoline] | 82.1 ± 16.3 | 64.5 ± 19.5 | 41.0 ± 10.7 | 46.5 ± 16.0 | 59.00 | 68.86 | 193.94 ± 44.3 | 140.59 ± 28.52 | 113.1 ± 15.7 | 113.4 ± 17.3 | 101.5 ± 27.46 | 102.25 ± 21.6 | 113.1 ± 14.2 | 102.3 ± 7.6 | 114.6 ± 19.4 | 95.5 ± 15.9 | 82.5 ± 19.8 | 92.8 ± 18.6 | 110.5 ± 15.5 | 100.0 ± 17.8 | Heart rate [5, 9]: 400.8 ± 32.1 BTM; Heart rate [5, 10]: 378.3 ± 30.3 BTM; Heart rate [5, 11]: 384.6 ± 48.2 BTM; Heart rate [5, 12]: 388.0 ± 21.4 BTM; Heart rate [5, 13]: 402.5 ± 59.3 BTM; Heart rate [5, 14]: 407.0 ± 36.5 BTM; Heart rate [5, 15]: 409.2 ± 41.7 BTM; Heart rate [5, 16]: 390.7 ± 41.7 BTM; Heart rate [5, 17]: 319.7 ± 57.2 BTM; Heart rate [5, 18]: 353.8 ± 66.7 BTM; Heart rate [5, 19]: 378.0 ± 47.6 BTM; Heart rate [5, 20]: 407.0 ± 42.6 BTM; ALT [6]: 172.8 ± 37.5 U/L; AST [6]: 195.0 ± 32.1 U/L; histopathological examination of liver [6]: vacuolar degeneration of hepatocytes; plasma ALT and AST versus control group [6]: significant increase |
